From patent publication US5556864A, “α-ω-diarylalkane compounds serotonin-2 receptor agonists” (Sankyo Company, Limited, priority 1992, dated 1996)
Where a name gives a salt, the structure may show the parent alone.

Legend:
5-HT2 receptors = biological target: T1, 5-HT2 receptors (Rattus norvegicus, UniProt P14842); assay: Vasoconstriction experiment: relaxation of rat caudal artery strips precontracted with 5-HT; type: cell-based, rat (male Sprague-Dawley); conditions: precontracted with 5-HT 3×10^-6 M; concentration causing one half of maximum relaxation (papaverine 10^-4 M = maximum); 37 °C
T1 construct: The caudal arteries were dissected free from connective tissue and cut into spiral strips; from tissue; host or cells: rat caudal artery, spiral strips
T1 sequence (P14842 whole entry): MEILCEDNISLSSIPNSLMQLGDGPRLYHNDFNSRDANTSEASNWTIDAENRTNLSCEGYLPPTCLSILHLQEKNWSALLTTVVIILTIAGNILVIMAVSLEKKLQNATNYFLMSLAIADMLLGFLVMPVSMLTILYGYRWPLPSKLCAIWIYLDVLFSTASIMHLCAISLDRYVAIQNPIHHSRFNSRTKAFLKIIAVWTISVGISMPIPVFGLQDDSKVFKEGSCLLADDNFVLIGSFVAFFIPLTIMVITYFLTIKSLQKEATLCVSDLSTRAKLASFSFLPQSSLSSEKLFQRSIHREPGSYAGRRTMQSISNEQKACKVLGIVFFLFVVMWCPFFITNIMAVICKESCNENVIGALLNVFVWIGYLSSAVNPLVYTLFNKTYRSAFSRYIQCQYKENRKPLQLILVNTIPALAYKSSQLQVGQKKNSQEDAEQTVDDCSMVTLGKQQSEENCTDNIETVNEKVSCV
Description: (§1) Vasoconstriction Experiment
(§2) Contractions of the rat caudal ateries were investigated by the method of Van Neuten et al. (J. Pharmacol. Exp. Ther., 218, 217-230, 1981).
(§3) Male Sprague-Dawley rats, each weighing approximately 500 g, were sacrificed by rapid exsanguination. The caudal arteries were dissected free from connective tissue and cut into spiral strips (2×20 mm). The resulting preparations were mounted in organ baths, each containing 10 ml of Tyrode solution maintained at 37° C., and then gassed with a mixture of 95% by volume O2 and 5% CO2. The preparations were allowed to equilibrate for 1 hour before being used in the experiment.
(§4) An initial optimum resting tension of 0.5 g was applied to the preparations, and isometric contractions were recorded with force-displacement transducers. The relaxant effects of the test compounds were determined on preparations which had been precontracted with 5-HT (5-hydroxytryptamine) (3×10^-6 M), which is an agonist of the 5-HT2 receptors, or phenylephrine (10^-6 M), which is an agonist of the adrenaline-α1 receptors. After the constractile response to the 5-HT or the phenylephrine had reached a steady state, the test compound was added cumulatively to the bathing medium. At the end of the experiments, papaverine (10^-4 M) was added to produce the maximum relaxation.
(§5) The relaxation induced by each test compound was calculated as a percentage of the maximum relaxation induced by 10^-4 M of papaverine. The concentrations causing one half of the maximum relaxation (IC50) were calculated by the method of least squares.

adrenaline-α1 receptors = assay: Vasoconstriction experiment: relaxation of rat caudal artery strips precontracted with phenylephrine; type: cell-based, rat (male Sprague-Dawley); conditions: precontracted with phenylephrine 10^-6 M; concentration causing one half of maximum relaxation (papaverine 10^-4 M = maximum); 37 °C; read-out: IC50 adrenalin-α1
Description: as §1, §2, §3, §4, §5

| SMILES | IC50 (5-HT2 receptors) [nM] | IC50 (adrenaline-α1 receptors) [nM] |
| --- | --- | --- |
| COc1cccc(CCc2ccccc2OCCC2CCCCN2C)c1 (stereo not shown) [Example 48, 2-(2-{2-[2-(3-Methoxyphenyl)ethyl]phenoxy}ethyl)-1-methylpiperidine hydrochloride] | 3.7 | 2500 |
| COc1cccc(CCc2ccccc2OCC2CCCN(C)C2)c1 (stereo not shown) [Example 50, 3-{2-[2-(3-Methoxyphenyl)ethyl]phenoxymethyl}-1-methylpiperidine hydrochloride] | 4.3 | 3700 |
| COc1cccc(CCc2ccccc2OC[C@@H]2CCCN2C)c1 [Example 58, (S)-2-{2-[2-(3-Methoxyphenyl)ethyl]phenoxymethyl}-1-methylpyrrolidine hydrochloride] | 5 | 4900 |
| CN1CCCC1CCOc1ccccc1CCc1ccccc1F (stereo not shown) [Example 97, 2-(2-{2-[2-(2-Fluorophenyl)ethyl]phenoxy}ethyl)-1-methylpyrrolidine hydrochloride] | 6.5 | 860 |
| CN1CCCC1CCOc1ccccc1CCc1cccc(Br)c1 (stereo not shown) [Example 98, 2-(2-{2-[2-(3-Bromophenyl)ethyl]phenoxy}ethyl)-1-methylpyrrolidine hydrochloride] | 5.4 | 2200 |
| CCOc1cccc(CCc2ccccc2OCCC2CCCN2C)c1 (stereo not shown) [Example 99, 2-(2-{2-[2-(3-Ethoxyphenyl)ethyl]phenoxy}ethyl)-1-methylpyrrolidine hydrochloride] | 6.1 | 1300 |
| CCOc1ccc(CCc2ccccc2OCCC2CCCN2C)cc1 (stereo not shown) [Example 101, 2-(2-{2-[2-(4-Ethoxyphenyl)ethyl]phenoxy}ethyl)-1-methylpyrrolidine hydrochloride] | 3.7 | 3700 |
| CN1CCCC1CCOc1ccccc1CCc1ccccc1C#N (stereo not shown) [Example 108, 2-(2-{2-[2-(2-Cyanophenyl)ethyl]phenoxy}ethyl)-1-methylpyrrolidine hydrochloride] | 2.2 | 1700 |
| COc1cccc(CCc2ccccc2OCC[C@@H]2CCCN2C)c1 [Example 113, (S)-2-(2-{2-[2-(3-Methoxyphenyl)ethyl]phenoxy}ethyl)-1-methylpyrrolidine hydrochloride] | 2.2 | 1200 |
| CN1CCC[C@H]1CCOc1ccccc1CCc1cccc(OC(F)F)c1 [Example 116, (S)-2-(2-{2-[2-(3-Difluoromethoxyphenyl)ethyl]phenoxy}ethyl)-1-methylpyrrolidine hydrochloride] | 2.2 | – |
| COc1cc(CCc2ccccc2OCC[C@@H]2C[C@@H](O)CN2C)cc(OC)c1 [Example 118, (2R,4R)-4-hydroxy-2-(2-{2-[2-(3,5-dimethoxyphenyl)ethyl]phenoxy}ethyl)-1-methylpyrrolidine] | 2.6 | 5400 |
| COc1cccc(CCc2ccccc2OC[C@H]2CCCNC2)c1 [Example 120, (S)-3-{2-[2-(3-Methoxyphenyl)ethyl]phenoxymethyl}piperidine hydrochloride] | 4.2 | – |
| COc1cccc(CCc2ccccc2OC[C@H]2CCCN(C)C2)c1 [Example 121, (S)-3-{2-[2-(3-Methoxyphenyl)ethyl]phenoxymethyl}-1-methylpiperidine hydrochloride] | 2.2 | – |
| FC(F)Oc1cccc(CCc2ccccc2OCC2CCCNC2)c1 (stereo not shown) [Example 123, 3-{2-[2-(3-Difluoromethoxyphenyl)ethyl]phenoxymethyl}piperidine hydrochloride] | 5.7 | – |
| CN1CCCC(COc2ccccc2CCc2cccc(OC(F)F)c2)C1 (stereo not shown) [Example 124, 3-{2-[2-(3-Difluoromethoxyphenyl)ethyl]phenoxymethyl}-1-methylpiperidine hydrochloride] | 4.6 | – |
